Measurements published in patent publication US4732977A, “Carbapenem antibiotics” (priority 1986, dated 1988).
Converted amounts (≈) assume the structure as drawn. Read-outs that look alike come from different tables or passages of the source.

Legend:
S. pyogenes A-9604 = test: M.I.C., tube dilution; format: cell-based; conditions: Streptococcus pyogenes, A9604; overnight incubation at 37° C., Nutrient Broth; read-out: MIC
P. vulgaris A21559 = test: M.I.C., tube dilution; format: cell-based; conditions: Proteus vulgaris, A21559, overnight incubation at 37° C., Nutrient Broth; read-out: MIC
S. marcescens A20019 = test: M.I.C., tube dilution; format: cell-based; conditions: Serratia marcescens, A20019; overnight incubation at 37° C., Nutrient Broth
P. aeruginosa A21213 = test: M.I.C., tube dilution; format: cell-based; conditions: Pseudomonas aeruginosa, A21213, overnight incubation at 37° C., Nutrient Broth; read-out: MIC
[1] = Blood levels in mice after intramuscular administration; conditions: mouse, blood, im, 20 mg/kg;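 also: compounds dissolved in 0.1 M phosphate buffer at pH 7, data from one experiment using four mice for each compound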
From the text: Compounds were solubilized in 0.1 M phosphate buffer pH 7.
a single test; 4 mice used per compound.
Compounds were solubilized in 0.1 M phosphate buffer, pH 7.
on a single test; 4 mice per compound.

K. pneumoniae A-9664 = test: M.I.C., tube dilution; format: cell-based; conditions: Klebsiella pneumoniae, A9664, overnight incubation at 37° C., Nutrient Broth
S. pneumoniae A-9585 = test: M.I.C., tube dilution; format: cell-based; conditions: Streptococcus pneumoniae, A9585; overnight incubation at 37° C., Nutrient Broth; read-out: MIC
K. pneumoniae A9664 = test: Protective effect in intramuscular treatment of infected mice; format: in vivo; conditions: Klebsiella pneumoniae
From the text: (§1) The PD50 (dose in mg/kg) required to give protection to 50% of the infected mice is indicated.

E. coli A-15119 = test: as above; format: in vivo; conditions: Escherichia coli, mice, i.m., read-out: PD50/treatment
Method: (§2) The PD50 (dose in mg/kg required to give protection to 50% of the infected mice) is indicated.
with drugs 0 and 2 hours postinfection.
as §1

S. aureus A-9606 = test: as above; format: in vivo; conditions: Staphylococcus aureus, mice, i.m., read-out: PD50/treatment
Method: as §2
with drugs 0 and 2 hours postinfection.
as §1

B. fragilis A22862 = test: M.I.C., tube dilution; format: cell-based; conditions: Bacteroides fragilis, overnight incubation at 37° C., Nutrient Broth
H. influenzae A21518 = test: M.I.C., tube dilution; format: cell-based; conditions: Haemophilus influenzae, overnight incubation at 37° C., Nutrient Broth
H. influenzae A-9833 = test: M.I.C., tube dilution; format: cell-based; conditions: Haemophilus influenzae, A9833; overnight incubation at 37° C., Nutrient Broth
P. aeruginosa A-9843a = test: animal or person; format: in vivo, mice; conditions: Pseudomonas aeruginosa, A9843A, in Mus musculus, im, read-out: PD50/treatment
Method: as §2
with drugs 0 and 2 hours postinfection.
as §1

P. mirabilis A-9900 = test: Protective effect in intramuscular treatment of infected mice; format: in vivo; conditions: Proteus mirabilis, mice, i.m., read-out: PD50/treatment
Method: as §2
with drugs 0 and 2 hours postinfection.
as §1

S. aureus A-9537 = test: M.I.C., tube dilution; format: cell-based; conditions: Staphylococcus aureus, read-out: MIC
P. aeruginosa A24081 = test: Protective effect in intramuscular treatment of infected mice; format: in vivo; conditions: Pseudomonas aeruginosa, read-out: PD50/treatment
From the text: as §1

S. faecalis A20688 = test: M.I.C., tube dilution; format: cell-based; conditions: Enterococcus faecalis, A20688, overnight incubation at 37° C., Nutrient Broth; read-out: MIC
E. coli A20341-1 = test: M.I.C., tube dilution; format: cell-based; conditions: Escherichia coli
E. coli A15119 = test: M.I.C., tube dilution; format: cell-based; conditions: Escherichia coli, A15119
[2] = tested on: S. aureus A15097 (Meth-res.); test: M.I.C., tube dilution; format: cell-based; conditions: Staphylococcus aureus, overnight incubation at 37° C.
P. rettgeri A22424 = test: M.I.C., tube dilution; format: cell-based; conditions: Providencia rettgeri, A22424
E. cloacae A-9659 = test: M.I.C., tube dilution; format: cell-based; conditions: Enterobacter cloacae, A9659
K. pneumoniae A20468 = test: M.I.C., tube dilution; format: cell-based; conditions: Klebsiella pneumoniae, A20468, overnight incubation at 37° C., Nutrient Broth
[3] = im, K. pneumoniae A9664, read-out: PD50/treatment
[4] = A203411, overnight incubation at 37° C., Nutrient Broth, read-out: MIC
[5] = overnight incubation at 37° C., Nutrient Broth, read-out: MIC

Compound | MIC (S. pyogenes A-9604) [µg/mL] | MIC (P. vulgaris A21559) [µg/mL] | MIC (P. aeruginosa A21213) [µg/mL] | AUC [1] [ng·h/mL] | Cmax [1] [ng/mL] | half-life [1] [min] | MIC (S. pneumoniae A-9585) [µg/mL] | ED50 (P. aeruginosa A-9843a) [mg/kg] | MIC (S. aureus A-9537; A9537, +50% serum) [µg/mL] | MIC (S. faecalis A20688) [µg/mL] | ED50 (S. aureus A-9606; im, S. aureus A9606) [mg/kg] | also measured
Cc1sc(CSC2=C(C(=O)[O-])N3C(=O)[C@H]([C@@H](C)O)[C@H]3C2)c(C)[n+]1C [Example 10, 3-(2,3,4-Trimethylthiazole-5-yl-methanethio)-6α-[1-(R)-hydroxyethyl]-7-oxo-1-azabicyclo(3.2.0)hept-2-ene-2-carboxylate] | 0.001 (≈ 0.00271 µM) | 0.016 (≈ 0.0434 µM) | 2 (≈ 5.43 µM) | 9500 | 20100 | 11 | 0.001 (≈ 0.00271 µM) |  |  |  |  | MIC (S. marcescens A20019): 0.06 µg/mL (≈ 0.163 µM); MIC (K. pneumoniae A-9664): 0.06 µg/mL (≈ 0.163 µM)
C[C@@H](O)[C@H]1C(=O)N2C(C(=O)[O-])=C(SCCc3cccc[n+]3C)C[C@H]12 [Example 5, 3-(N-Methylpyridine-2-yl-ethanethio)-6α-[1-(R)-hydroxyethyl]-7-oxo-1-azabicyclo(3.2.0)hept-2-ene-2-carboxylate] |  | 0.016 (≈ 0.0459 µM) | 2 (≈ 5.74 µM) |  |  |  |  | 1.6 |  |  |  | ED50 (K. pneumoniae A9664; A9664, im, i.m., K. pneumoniae, strain not given, read-out: PD50/treatment): 3 mg/kg; ED50 (E. coli A-15119; A15119, im, E. coli, strain not given): 4 mg/kg; ED50 (S. aureus A-9606; A9606, im, S. aureus, strain not given): 0.2 mg/kg; MIC (B. fragilis A22862): 0.03 µg/mL (≈ 0.0861 µM); MIC (H. influenzae A21518): 4 µg/mL (≈ 11.5 µM); MIC (H. influenzae A-9833): 4 µg/mL (≈ 11.5 µM); ED50 (P. mirabilis A-9900; A9900, im, P. mirabilis, strain not given): 10 mg/kg
C[C@@H](O)[C@H]1C(=O)N2C(C(=O)[O-])=C(SCc3n(C)cc[n+]3C)C[C@H]12 [Example 9, 3-(N,N'-Dimethylimidazole-2-yl-methanethio)-6α-[1-(R)-hydroxyethyl]-7-oxo-1-azabicyclo(3.2.0)hept-2-ene-2-carboxylate] | 0.001 (≈ 0.00296 µM) | 0.008 (≈ 0.0237 µM) |  | 8500 | 16700 | 12 | 0.001 (≈ 0.00296 µM) | 0.19 | 0.008 (≈ 0.0237 µM) |  |  | ED50 (K. pneumoniae A9664; [3]): 1.8 mg/kg; ED50 (P. aeruginosa A24081; A24081, im): 0.19 mg/kg; ED50 (E. coli A-15119; im, E. coli A15119): 1.2 mg/kg; ED50 (P. mirabilis A-9900; im, P. mirabilis A9900): 7.1 mg/kg
Cc1scc(CSC2=C(C(=O)[O-])N3C(=O)[C@H]([C@@H](C)O)[C@H]3C2)[n+]1C [Example 8, 3-(2-Methyl-N-methyl-thiazole-4-yl-methanethio)-6-α-[1-(R)-hydroxyethyl]-7-oxo-1-azabicyclo(3.2.0)hept-2-ene-2-carboxylate] |  | 0.03 (≈ 0.0846 µM) |  | 10500 | 18800 | 11 |  | 0.19 |  | 0.5 (≈ 1.41 µM) | 0.21 | ED50 (K. pneumoniae A9664; [3]): 1.8 mg/kg; ED50 (P. aeruginosa A24081; im, mice, i.m., P. aeruginosa A24081): 0.33 mg/kg; ED50 (E. coli A-15119; im, E. coli A15119): 0.86 mg/kg; ED50 (P. mirabilis A-9900; im, P. mirabilis A9900): 1.4 mg/kg
CCC[n+]1ccc(CSC2=C(C(=O)[O-])N3C(=O)[C@H]([C@@H](C)O)[C@H]3C2)cc1 [Example 6, 3-(1-Propylpyridine-4-yl-methanethio)-6α-[1-(R)-hydroxyethyl]-7-oxo-1-azabicyclo(3.2.0)hept-2-ene-2-carboxylate] |  | 0.06 (≈ 0.166 µM) | 1 (≈ 2.76 µM) | 8500 | 17700 | 9 |  | 0.4 | 0.06 (≈ 0.166 µM) | 0.5 (≈ 1.38 µM) |  | MIC (E. coli A20341-1; A203411, overnight incubation at 37° C., Nutrient Broth): 0.06 µg/mL (≈ 0.166 µM); MIC (E. coli A15119; overnight incubation at 37° C., Nutrient Broth): 0.06 µg/mL (≈ 0.166 µM); MIC [2]: 4 µg/mL (≈ 11 µM); MIC (B. fragilis A22862): 0.03 µg/mL (≈ 0.0828 µM)
C[C@@H](O)[C@H]1C(=O)N2C(C(=O)[O-])=C(SCCc3cc[n+](C)cc3)C[C@H]12 [Example 2] | 0.001 (≈ 0.00287 µM) | 0.016 (≈ 0.0459 µM) | 2 (≈ 5.74 µM) | 5300 | 13900 | 9 | 0.001 (≈ 0.00287 µM) |  |  |  |  | MIC (E. coli A20341-1; A203411, table 2, no inoculum dilution printed, read-out: MIC): 0.016 µg/mL (≈ 0.0459 µM); MIC (E. coli A15119; table 2, no inoculum dilution printed, read-out: MIC): 0.016 µg/mL (≈ 0.0459 µM)
CC(SC1=C(C(=O)[O-])N2C(=O)[C@H]([C@@H](C)O)[C@H]2C1)c1cc[n+](C)cc1 (stereo partly shown) [Example 12] |  | 0.016 (≈ 0.0459 µM) | 2 (≈ 5.74 µM) |  |  |  | 0.002 (≈ 0.00574 µM) | 1.8 | 0.016 (≈ 0.0459 µM) | 0.5 (≈ 1.44 µM) | 0.89 | MIC (E. coli A20341-1; [4]): 0.008 µg/mL (≈ 0.023 µM); MIC (S. aureus A-9537; A9537, overnight incubation at 37° C., Nutrient Broth): 0.008 µg/mL (≈ 0.023 µM); MIC (P. rettgeri A22424): 0.13 µg/mL (≈ 0.373 µM); MIC (E. cloacae A-9659): 0.06 µg/mL (≈ 0.172 µM); MIC (K. pneumoniae A20468): 0.06 µg/mL (≈ 0.172 µM)
Cc1c(CSC2=C(C(=O)[O-])N3C(=O)[C@H]([C@@H](C)O)[C@H]3C2)ccc[n+]1C [Example 14, 3-(2-Methyl-N-methylpyridine-3-yl-methanethio)-6α[1-(R)-hydroxyethyl]-7-oxo-1-azabicyclo(3.2.0)hept-2-ene-2-carboxylate] | 0.0005 (≈ 0.00144 µM) | 0.016 (≈ 0.0459 µM) | 0.5 (≈ 1.44 µM) | 7600 | 15800 | 13 | 0.0005 (≈ 0.00144 µM) | 0.45 |  |  | 0.07 | 
C[C@@H](O)[C@H]1C(=O)N2C(C(=O)[O-])=C(SCc3cn(CC(=O)O)n[n+]3C)C[C@H]12 [Example 18, Potassium 3-[4-(1-carboxylatomethyl-3-methyl-1,2,3-triazolium)-methanethio]-6α-[1-(R)-hydroxyethyl]-7-oxo-1-azabicyclo[3.2.0]hept-2-ene-2-carboxylate] | 2 |  | 63 | 3900 | 14900 | 6 | 1 |  | > 63 | 63 |  | MIC (E. coli A20341-1; [4]): 16 µg/mL; MIC (E. coli A15119; [5]): 16 µg/mL; MIC (E. cloacae A-9659; [5]): 63 µg/mL; MIC (K. pneumoniae A20468; read-out: MIC): 63 µg/mL
C[C@@H](O)[C@H]1C(=O)N2C(C(=O)[O-])=C(SCc3cn(C)n[n+]3C)C[C@H]12 [Example 15 "A", 3-[4-(N,N-dimethyl-1,2,3-triazolium)methylthio]-6α-[1-(R)-hydroxyethyl]-7-oxo-1-azabicyclo(3.2.0)hept-2-ene-2-carboxylate] | 0.0005 (≈ 0.00148 µM) | 0.008 (≈ 0.0236 µM) |  | 9500 | 16700 | 12 | 0.0005 (≈ 0.00148 µM) | 0.39 |  |  |  | 
